The record followed here is patent publication US9983218B2, “Indole and indoline derivatives and methods of use thereof” (AbbVie Inc., priority 2008, dated 2018).

The test has as its system SK-N-SH human neuroblastoma cells. Nature of the test: Serum deprivation/JC-1 mitochondrial membrane potential (MMP) assay. The class given is cell-based. The following applies: Homo sapiens; for Emax: SK-N-SH, percent maximal intensity in JC-1 ratio normalized to 10 μM dimebolin, read-out: JC-1 max %; for EC50: SK-N-SH cells, serum deprivation ~18 hours, JC-1 ratio normalized to peak value for 10 μM dimebolin, single curve fit to mean data of n=2-3, read-out: EC50. The procedure:
SK-N-SH human neuroblastoma cells obtained from American Type Culture Collection (Rockville, Md.) were maintained in the log phase of growth in Minimal Essential Media (MEM), 10% heat inactivated fetal calf serum and 100 units/mL antibiotic-antimycotic (AA). Cells were cultured and maintained in a humidified incubator at 37° C. under 5% CO2 and 95% air. Cells were trypsinized (0.25%) and subcultured every 3 days and used from 15-18 passages. All cell culture supplies were obtained from Invitrogen (Carlsbad, Calif.).
SK-N-SH cells were plated 2-3 days in advance at a concentration of 50,000 cells/well onto collagen coated black-walled 96 well plates (Becton-Dickinson, Bedford, Mass.) in a total volume of 200 μL. On day of experimental treatment, the media containing serum was aspirated from each well and rinsed once with MEM/1% AA without serum. The cells then were incubated overnight in 100 μL of MEM/1% AA (no serum) with and without dimebolin or novel chemical entities overnight for ˜18 hours. The following day, JC-1 dye (5,5′,6,6′-tetrachloro-1,1′,3,3′-tetraethylbenzimidazolcarbocyanide) was diluted 1:10 into MEM media according to the JC-1 Mitochondrial Membrane Potential Assay Kit: (Cayman Chemical Company, Ann Arbor, Mich.) and then 10 μL of the JC-1 dye solution was added to each well. The plates were centrifuged for 5 minutes at 400×g at room temperature followed by 35 minute incubation at 37° C. The plates were washed twice with 200[…] μL of provided Assay Buffer followed an addition of 100 μL of Assay Buffer to each well. The plates were read with an excitation and emission of 560 nm and 595 nM for red fluorescence and with an excitation and emission of 485 nm and 535 nM for green fluorescence to determine the final JC-1 value taking the red to green fluorescence ratio. This assay is based on change in mitochondrial membrane potential (MMP) using this lipophilic cationic dye, JC-1, by monitoring the changes in the ratio of red to green fluorescence as the MMP depolarizes. This change in MMP reflects the health of the cell with healthy, viable cells have a high JC-1 ratio and high MMP whereas apoptotic, unhealthy cells have a low JC-1 ratio or low MMP.
For the ability of compounds to reverse the stress due to serum deprivation and increase the JC-1 ratio, the percent maximal intensity in JC-1 ratio was normalized to that induced by the peak value for 10 μM dimebolin and plotted against the compound concentration to calculate EC50 values and to control for plate-to-plate variability. Concentration-response data were analyzed using GraphPad Prism (San Diego, Calif.); the EC50 values were derived from a single curve fit to the mean data of n=2-3, in duplicates.
All compounds were dissolved in dimethyl sulfoxide at 10 mM stock solutions and tested at a concentration that the dimethyl sulfoxide levels never exceeded 1%.

As for `Cc1ccc2c(c1)c1c(n2S(=O)(=O)c2ccccc2)CC2CCC1N2C` (stereo not drawn) [Example 69, 2,11-dimethyl-5-(phenylsulfonyl)-5,6,7,8,9,10-hexahydro-7,10-epiminocyclohepta[b]indole], the Emax amounted to 161% and the EC50 (in general, the concentration giving half of the maximal effect) was found to be 4.43 µM.

`COc1cccc2c3c(n(CCc4ccc(Cl)cc4)c12)CC1CCC3N1C` (stereo not drawn) [Example 96, 5-[2-(4-chlorophenyl)ethyl]-4-methoxy-11-methyl-5,6,7,8,9,10-hexahydro-7,10-epiminocyclohepta[b]indole]: the Emax stood at 169% and the EC50 came out at 4.41 µM.

Take `CC1CCCN1c1ccc(Cn2c3c(c4cc(F)ccc42)CN2CCC3CC2)cn1` (stereo not drawn) [Example 240, 9-fluoro-6-{[6-(2-methylpyrrolidin-1-yl)pyridin-3-yl]methyl}-3,4,5,6-tetrahydro-1H-2,5-ethanoazepino[4,3-b]indole]: the Emax is 170% and the EC50 was 3.33 µM.

Take `Fc1ccc2c(c1)c1c(n2-c2ccc3cccnc3c2)C2CCN(CC2)C1` [Example 226, 9-fluoro-6-quinolin-7-yl-3,4,5,6-tetrahydro-1H-2,5-ethanoazepino[4,3-b]indole]: the Emax was 307% and the EC50 came to 1.68 µM.

`Cc1ccc2c(c1)c1c(n2CCc2cnc(C)cn2)C[C@H]2CC[C@@H]1N2C` [Example 34, (7R,10S)-2,11-dimethyl-5-[2-(5-methylpyrazin-2-yl)ethyl]-5,6,7,8,9,10-hexahydro-7,10-epiminocyclohepta[b]indole]: the Emax is 175% and the EC50 came to 18.1 µM.

Consider `Fc1ccc2c(c1)c1c(n2Cc2ccc(Cl)nc2)CC2CNC1C2` (stereo not drawn) [Example 285, 6-[(6-chloropyridin-3-yl)methyl]-9-fluoro-1,2,3,4,5,6-hexahydro-1,4-methanoazepino[4,3-b]indole], for which the Emax was 149% and the half-maximal effective concentration (EC50) was 9.41 µM.

Take `Cc1ccc2c(c1)c1c(n2-c2ccc3ccncc3c2)C2CCN(CC2)C1` [Example 216, 6-isoquinolin-7-yl-9-methyl-3,4,5,6-tetrahydro-1H-2,5-ethanoazepino[4,3-b]indole]: the Emax is 284% and the EC50 turned out to be 4.2 µM.

Regarding `Clc1ccc2nc(Cn3c4c(c5ccccc53)CN3CCC4CC3)cn2n1` [Example 257, 6-[(6-chloroimidazo[1,2-b]pyridazin-2-yl)methyl]-3,4,5,6-tetrahydro-1H-2,5-ethanoazepino[4,3-b]indole], the Emax worked out at 155% and the EC50 was 3.6 µM.

For the molecule `c1ccc2c(c1)c1c(n2-c2cc(-n3ccnc3)ccn2)C2CCN(CC2)C1` [Example 272, 6-[4-(1H-imidazol-1-yl)pyridin-2-yl]-3,4,5,6-tetrahydro-1H-2,5-ethanoazepino[4,3-b]indole], the Emax is 149% and the EC50 came out at 3.99 µM.

With `O=c1ccccn1-c1cccc(-n2c3c(c4cc(F)ccc42)CN2CCC3CC2)n1` [Example 258, 6′-(9-fluoro-1,3,4,5-tetrahydro-6H-2,5-ethanoazepino[4,3-b]indol-6-yl)-2H-1,2′-bipyridin-2-one], the Emax was determined as 149% and the concentration giving a half-maximal response (EC50) amounted to 2.99 µM.

In the case of `Cc1ccc2c(c1)c1c(n2CC(=O)Nc2ccc(Cl)cc2)C2CCN(CC2)C1` [Example 155, N-(4-chlorophenyl)-2-(9-methyl-1,3,4,5-tetrahydro-6H-2,5-ethanoazepino[4,3-b]indol-6-yl)acetamide], the Emax was determined as 63% and the EC50 was 7.53 µM.

Regarding `c1ccc(Cn2c3c(c4ccccc42)CN2CCC3CC2)nc1` [Example 187, 6-[(pyridin-2-yl)methyl]-3,4,5,6-tetrahydro-1H-2,5-ethanoazepino[4,3-b]indole], the Emax amounted to 110% and the EC50 stood at 9.37 µM.

Regarding `Cc1ccc2c(c1)[C@H]1CN3CCC(CC3)[C@H]1N2CCc1ccc(C)nc1` (single isomer, unassigned) [Example 160], the Emax is 194% and the EC50 is 1.61 µM.

Turning to `CCOC(=O)N1[C@H]2CC[C@@H]1c1c(n(CCc3ccc(C)nc3)c3ccc(C)cc13)C2` [Example 16, ethyl (7S,10R)-2-methyl-5-[2-(6-methylpyridin-3-yl)ethyl]-5,6,7,8,9,10-hexahydro-7,10-epiminocyclohepta[b]indole-11-carboxylate], the Emax was determined as 129% and the EC50 is 8.38 µM.

On to `Fc1ccc2c(c1)c1c(n2Cc2ccncc2)C2CCN(CC2)C1` [Example 186, 9-fluoro-6-(pyridin-4-ylmethyl)-3,4,5,6-tetrahydro-1H-2,5-ethanoazepino[4,3-b]indole], for which the Emax is 93% and the EC50 worked out at 14.6 µM.

For `Cc1ccc(S(=O)(=O)n2c3c(c4cc(Br)ccc42)C2CCC(C3)N2C)cc1` (stereo not drawn) [Example 90, 2-bromo-11-methyl-5-[(4-methylphenyl)sulfonyl]-5,6,7,8,9,10-hexahydro-7,10-epiminocyclohepta[b]indole], the Emax turned out to be 176% and the concentration for a half-maximal effect (EC50) was 3.43 µM.

As for `c1ccc2c(c1)c1c(n2-c2ccc3cnccc3c2)C2CCN(CC2)C1` [Example 271, 6-(isoquinolin-6-yl)-3,4,5,6-tetrahydro-1H-2,5-ethanoazepino[4,3-b]indole], the Emax is 264% and the EC50 was 3.17 µM.

For the molecule `COc1ccc2c(c1)c1c(n2CCc2ccc(Cl)cc2)C[C@@H]2CC[C@H]1N2C` (single isomer, unassigned) [Example 93], the Emax is 186% and the 50% effective concentration (EC50) worked out at 4.81 µM.

Consider `Cc1ccc(CCn2c3c(c4ccccc42)C2CCC(C3)N2C)cn1` (stereo not drawn) [Example 78, 11-methyl-5-[2-(6-methylpyridin-3-yl)ethyl]-5,6,7,8,9,10-hexahydro-7,10-epiminocyclohepta[b]indole], for which the Emax came to 211% and the EC50 worked out at 9.69 µM.

`NC(=O)c1ccc(-n2c3c(c4ccccc42)CN2CCC3CC2)nc1` [Example 266, 6-(1,3,4,5-tetrahydro-6H-2,5-ethanoazepino[4,3-b]indol-6-yl)nicotinamide]: the Emax stood at 127% and the EC50 was found to be 10.7 µM.

With `Fc1ccc2c(c1)c1c(n2Cc2ccnc(F)c2)C2CCN(CC2)C1` [Example 191, 9-fluoro-6-[(2-fluoropyridin-4-yl)methyl]-3,4,5,6-tetrahydro-1H-2,5-ethanoazepino[4,3-b]indole], the Emax came to 112% and the EC50 was 7.04 µM.

`c1ccc2nc(-n3c4c(c5ccccc53)CN3CCC4CC3)ccc2c1` [Example 235, 6-quinolin-2-yl-3,4,5,6-tetrahydro-1H-2,5-ethanoazepino[4,3-b]indole]: the Emax turned out to be 252% and the 50% effective concentration (EC50) came out at 3.96 µM.

For `Fc1ccc2c(c1)c1c(n2Cc2cccc3cccnc23)C2CCN(CC2)C1` [Example 251, 9-fluoro-6-(quinolin-8-ylmethyl)-3,4,5,6-tetrahydro-1H-2,5-ethanoazepino[4,3-b]indole], the Emax was found to be 193% and the EC50 is 4.39 µM.

As for `Cc1ccc2c(c1)c1c(n2CCc2scnc2C)CC2CCC1N2C` (stereo not drawn) [Example 35, 2,11-dimethyl-5-[2-(4-methyl-1,3-thiazol-5-yl)ethyl]-5,6,7,8,9,10-hexahydro-7,10-epiminocyclohepta[b]indole], the Emax came to 78% and the EC50 worked out at 6.71 µM.

With `Fc1ccc2c(c1)c1c(n2Cc2ccc(C(F)(F)F)nc2)C2CCN(CC2)C1` [Example 183, 9-fluoro-6-{[6-(trifluoromethyl)pyridin-3-yl]methyl}-3,4,5,6-tetrahydro-1H-2,5-ethanoazepino[4,3-b]indole], the Emax was 172% and the EC50 was determined as 8.97 µM.

Turning to `Cc1ccc2c(c1)c1c(n2/C=C\c2ccc(C)nc2)C[C@@H]2CC[C@H]1N2C` [Example 24, (7S,10R)-2,11-dimethyl-5-[(Z)-2-(6-methylpyridin-3-yl)vinyl]-5,6,7,8,9,10-hexahydro-7,10-epiminocyclohepta[b]indole], the Emax was 221% and the EC50 turned out to be 2.26 µM.

Regarding `Cc1ccc2c(c1)c1c(n2CCc2ccccc2F)C2CCN(CC2)C1` [Example 150, 6-[2-(2-fluorophenyl)ethyl]-9-methyl-3,4,5,6-tetrahydro-1H-2,5-ethanoazepino[4,3-b]indole], the Emax worked out at 134% and the half-maximal effective concentration (EC50) was found to be 3.6 µM.
